Measured values from patent US4789587A, “(1,3-dioxolan-2-yl-methyl)-1H-imidazoles as bactericidal and/or fungicidal agents” (IRE-Celltarg, S.A., priority 1986, dated 1988).
≈ marks a conversion by molar mass, not a printed value.

Test system: Candida albicans ATCCe 10231
Experiment: minimum inhibiting concentration, microtitration in liquid medium, C. albicans
Type: cell-based
Settings: ATCCE10231, RPMI + 20% foetal calf serum, overnight, inoculum 10^5 to 10^6 organisms/ml
Protocol: (§1) The activity of the new derivatives according to the invention was tested in vitro by determining the minimum inhibiting concentration (MIC) of the molecules and their fungicidal (minimum fungicidal concentration MFC) or bactericidal (minimum bactericidal concentration MBC) activity. MFC and MBC are defined as the minimum dose which kills 99.9% of the organisms contained in the inoculum. Two species of yeasts pathogenic to man were used: Candida albicans ATCCe 10231 and Candida tropicalis ATCC 13803. Two species of bacteria were included in the screening: Staphylococcus aureus ATCC 25923 and Salmonella typhimurium LT2, strain Demerec. The MIC is determined after culturing overnight in a liquid medium, by the microtitration method in dishes containing 96 wells over a concentration range of 100 μM to 0.0008 μM. The inoculum contains 10^5 to 10^6 organisms/ml. The culture media consist on the one hand of RPMI to which 20% of foetal calf serum (inactivated for one hour at 56°) has been added in order to determine the fungistatic activity and Mueller-Hinton agar in order to determine the bacteriostatic power of the newly synthesized molecules on the other. The MFC and MBC for each of these molecules are obtained by subculturing a sample containing 10^3 organisms from each well giving negative results for the growth of the organisms, in a solid medium consisting of YM agar (yeasts) or Mueller-Hinton agar (bacteria) overnight at 37°.

MIC	SMILES
3.13 µM	CC(=O)NCC(=O)N1CCN(c2ccc(OCC3COC(Cn4ccnc4)(c4ccc(Cl)cc4Cl)O3)cc2)CC1 (stereo not drawn) [No. 6, Cis-4-[A]-1-(N-acetylglycyl)piperazine]
10.2 µM	CCCCCCCCC=CCCCCCCCC(=O)N1CCN(c2ccc(OCC3COC(Cn4ccnc4)(c4ccc(Cl)cc4Cl)O3)cc2)CC1 (centres unmarked) [No. 7]
31.2 µM	CCCCCCCCC=CCCCCCCCC(=O)NCC(=O)N1CCN(c2ccc(OCC3COC(Cn4ccnc4)(c4ccc(Cl)cc4Cl)O3)cc2)CC1 (stereo not drawn) [No. 8, Cis-4-[A]-1-(N-oleylglycyl)piperazine]

Test system: Candida albicans ATCCe 10231
Experiment: minimum fungicidal concentration, subculture on YM agar, C. albicans
Type: cell-based
Settings: ATCCE10231, minimum dose which kills 99.9% of the organisms, YM agar, overnight at 37°, read-out: MFC C. albicans
Protocol: as §1

SMILES	MFC
CC(=O)NCC(=O)N1CCN(c2ccc(OCC3COC(Cn4ccnc4)(c4ccc(Cl)cc4Cl)O3)cc2)CC1 (stereo not drawn) [No. 6, Cis-4-[A]-1-(N-acetylglycyl)piperazine]	6.25 µM (≈ 3.68 µg/mL)
CCCCCCCCC=CCCCCCCCC(=O)N1CCN(c2ccc(OCC3COC(Cn4ccnc4)(c4ccc(Cl)cc4Cl)O3)cc2)CC1 (centres unmarked) [No. 7]	125 µM (≈ 94.2 µg/mL)
CCCCCCCCC=CCCCCCCCC(=O)NCC(=O)N1CCN(c2ccc(OCC3COC(Cn4ccnc4)(c4ccc(Cl)cc4Cl)O3)cc2)CC1 (stereo not drawn) [No. 8, Cis-4-[A]-1-(N-oleylglycyl)piperazine]	62.5 µM (≈ 50.7 µg/mL)

Test system: Salmonella typhimurium LT2, strain Demerec
Experiment: minimum inhibiting concentration, microtitration in liquid medium, S. typhimurium
Type: cell-based
Settings: Salmonella enterica, Mueller-Hinton, overnight, inoculum 10^5 to 10^6 organisms/ml, read-out: MIC S. typhimurium
Protocol: as §1

MIC	SMILES
> 100 µM	CCCCCCCCC=CCCCCCCCC(=O)N1CCN(c2ccc(OCC3COC(Cn4ccnc4)(c4ccc(Cl)cc4Cl)O3)cc2)CC1 (centres unmarked) [No. 7]

Test system: Staphylococcus aureus ATCC 25923
Experiment: minimum bactericidal concentration, subculture on Mueller-Hinton agar, S. aureus
Type: cell-based
Settings: ATCC25923, minimum dose which kills 99.9% of the organisms (MBC), overnight at 37°, read-out: MFC S. aureus
Protocol: as §1

SMILES	MBC
CCCCCCCCC=CCCCCCCCC(=O)N1CCN(c2ccc(OCC3COC(Cn4ccnc4)(c4ccc(Cl)cc4Cl)O3)cc2)CC1 (centres unmarked) [No. 7]	> 100 µM

Test system: Staphylococcus aureus ATCC 25923
Experiment: minimum inhibiting concentration, microtitration in liquid medium, S. aureus
Type: cell-based
Settings: ATCC25923, Mueller-Hinton, overnight, inoculum 10^5 to 10^6 organisms/ml, read-out: MIC S. aureus
Protocol: as §1

MIC	SMILES
> 100 µM	CCCCCCCCC=CCCCCCCCC(=O)N1CCN(c2ccc(OCC3COC(Cn4ccnc4)(c4ccc(Cl)cc4Cl)O3)cc2)CC1 (centres unmarked) [No. 7]

Test system: Candida tropicalis ATCC 13803
Experiment: minimum inhibiting concentration, microtitration in liquid medium, C. tropicalis
Type: cell-based
Settings: ATCC13803, RPMI + 20% foetal calf serum, overnight, inoculum 10^5 to 10^6 organisms/ml
Protocol: as §1

MIC	SMILES
0.78 µM	CC(=O)NCC(=O)N1CCN(c2ccc(OCC3COC(Cn4ccnc4)(c4ccc(Cl)cc4Cl)O3)cc2)CC1 (stereo not drawn) [No. 6, Cis-4-[A]-1-(N-acetylglycyl)piperazine]
8.78 µM	CCCCCCCCC=CCCCCCCCC(=O)N1CCN(c2ccc(OCC3COC(Cn4ccnc4)(c4ccc(Cl)cc4Cl)O3)cc2)CC1 (centres unmarked) [No. 7]
53.1 µM	CCCCCCCCC=CCCCCCCCC(=O)NCC(=O)N1CCN(c2ccc(OCC3COC(Cn4ccnc4)(c4ccc(Cl)cc4Cl)O3)cc2)CC1 (stereo not drawn) [No. 8, Cis-4-[A]-1-(N-oleylglycyl)piperazine]

Test system: Leydig tumor cells from mice (I-10, ATCC No. CCL83)
Experiment: in vitro synthesis of steroids: progesterone secretion by Leydig tumor cells induced by cAMP
Type: cell-based
Settings: 9.4×10^-7 M, dibutyryl-cAMP 1×10^-4 M, 3 hours incubation with compound; control 3546, basal 554
Source text: (§2) Ketoconazole and its derivatives reduce the plasma levels of testosterone by inhibiting certain enzymes involved in its biogenesis. Progesterone is a key intermediate in the biogenesis of steroid hormones as it leads especially to estradiol in the ovary and to testosterone in the testicles. The inhibiting power of ketoconazole and its derivatives on the enzyme chain for the biogenesis of steroid hormones may be assessed by measuring the conversion of cholesterol into progesterone. A method of determination which enables this property to be quantified is described below.
(§3) Leydig tumor cells from mice (I-10, ATCC No. CCL83) were grown in a HAM's F10 medium to which 15% of horse serum and 2.5% of foetal calf serum were added. These cells have the property of secreting progesterone and a product of reduction of the latter which is no longer metabolized, 20α-hydroxy-4-pregnen-3-one. This secretion of steroids is induced by the addition of cAMP in the form of its dibutyryl ester (N^6, O^2' -dibutyryladenosine 3', 5'-cyclic monophosphate sodium salt monohydrate (Sigma)). The cells are subcultured in 25 cm^2 falcon dishes and maintained under CO2 (10%). When these become confluent (±1 mg/ml proteins) the medium is replaced with fresh medium containing dibutyryl-cAMP (1×10^-4 M). After incubating for 1 hour with the cAMP, the ketoconazole or its derivatives are added (9.4×10^-7 M) to the culture medium. After incubating for a further period of 3 hours, the supernatants are collected and will be used for the analysis of steroids by HPLC. The cells are rinsed with PBS (phosphate buffered saline: NaCl 0.15M, KCl 2.7 mM, Na2 HPO4 -KH2 PO4 3 mM pH 7.4) and after treating with DOC (deoxycholic acid), the determination of proteins is carried out by the Lowry method.
(§4) For the determination of steroids, 2 ml of the culture medium are brought into contact with 5 ml of ether. The tubes are vortexed for 2 minutes. After freezing the aqueous phases in an isopropanol/solid carbon dioxide bath, the ether phase is collected and the ether is evaporated off under a stream of nitrogen at 30° C. The dry extract is then diluted in 150 μl of water and 150 μl of acetonitrile and centrifuged at 13,000 rpm for 10 minutes. 30 μl of the supernatant are injected into HPLC on a 4 mm diameter, 30 cm long μBondapack C18 column (WATERS). The mobile phase consists of 38% of water, 31% acetonitrile and 31% methanol. The flowrate is 2 ml/min and readings are taken at 245 nm.

SMILES	Progesterone (1)
CCCCCCCCC=CCCCCCCCC(=O)N1CCN(c2ccc(OCC3COC(Cn4ccnc4)(c4ccc(Cl)cc4Cl)O3)cc2)CC1 (centres unmarked) [No. 7]	2754 ng of steroids/mg of cell prot

Same assay, conditions: Mus musculus, Leydig; 9.4×10^-7 M; relative to cells induced by cAMP in the absence of inhibitor; read-out: Progesterone (2) % enzyme activity relative to control

SMILES	progesterone secretion, % of cAMP-induced control at 0.94 µM
CCCCCCCCC=CCCCCCCCC(=O)N1CCN(c2ccc(OCC3COC(Cn4ccnc4)(c4ccc(Cl)cc4Cl)O3)cc2)CC1 (centres unmarked) [No. 7]	78%

Test system: Candida tropicalis ATCC 13803
Experiment: minimum fungicidal concentration, subculture on YM agar, C. tropicalis
Type: cell-based
Settings: ATCC13803, minimum dose which kills 99.9% of the organisms, YM agar, overnight at 37°, read-out: MFC C. tropicalis
Protocol: as §1

SMILES	MFC
CC(=O)NCC(=O)N1CCN(c2ccc(OCC3COC(Cn4ccnc4)(c4ccc(Cl)cc4Cl)O3)cc2)CC1 (stereo not drawn) [No. 6, Cis-4-[A]-1-(N-acetylglycyl)piperazine]	12.5 µM (≈ 7.36 µg/mL)
CCCCCCCCC=CCCCCCCCC(=O)N1CCN(c2ccc(OCC3COC(Cn4ccnc4)(c4ccc(Cl)cc4Cl)O3)cc2)CC1 (centres unmarked) [No. 7]	250 µM (≈ 188 µg/mL)
CCCCCCCCC=CCCCCCCCC(=O)NCC(=O)N1CCN(c2ccc(OCC3COC(Cn4ccnc4)(c4ccc(Cl)cc4Cl)O3)cc2)CC1 (stereo not drawn) [No. 8, Cis-4-[A]-1-(N-oleylglycyl)piperazine]	> 100 µM

Test system: Leydig tumor cells from mice (I-10, ATCC No. CCL83)
Experiment: in vitro synthesis of steroids: 20α-hydroxy-4-pregnen-3-one secretion by Leydig tumor cells induced by cAMP
Type: cell-based
Settings: 9.4×10^-7 M, dibutyryl-cAMP 1×10^-4 M, 3 hours incubation with compound; control 1744, basal 785
Source text: as §2, §3, §4

SMILES	20α-OH-4-pregnen-3-one (1)
CCCCCCCCC=CCCCCCCCC(=O)N1CCN(c2ccc(OCC3COC(Cn4ccnc4)(c4ccc(Cl)cc4Cl)O3)cc2)CC1 (centres unmarked) [No. 7]	1497 ng of steroids/mg of cell prot

Same assay, conditions: Mus musculus, Leydig; 9.4×10^-7 M; relative to cells induced by cAMP in the absence of inhibitor; read-out: 20α-OH-4-pregnen-3-one (2) % enzyme activity relative to control

SMILES	activity at 0.94 µM
CCCCCCCCC=CCCCCCCCC(=O)N1CCN(c2ccc(OCC3COC(Cn4ccnc4)(c4ccc(Cl)cc4Cl)O3)cc2)CC1 (centres unmarked) [No. 7]	86%

Test system: not listed separately
Experiment: resorption: plasma concentration in rats after gastric administration
Type: in vivo
Settings: rat, po, 1000 umol/kg, 100 μmols/0.5 ml of DMSO per 100 g of body weight, Candida tropicalis inhibition zones vs ketoconazole standard curve, read-out: plasma concentration of the antifungal product
Protocol: 100 μmols/0.5 ml of DMSO per 100 g of body weight of either ketoconazole (reference product) or oleylketoconazole (compound No. 7) are administered to rats by the gastric route. The animals are sacrificed with CO2, 1 h after the administration. Blood is sampled by cardiac puncture and centrifuged for 15 minutes at 2000 rpm to obtain the plasma.
A series of dilutions of the plasma samples are prepared in a 0.9% NaCl solution, diluting twice each time. 10 μl are sampled from each dilution and deposited on Whatman paper discs. The discs are placed in Petri dishes containing 15 ml of casitone agar covered with a layer containing 3 ml of a less dense agar mixed with 0.1 ml of an overnight culture of Candida tropicalis. After incubating overnight the growth inhibition zones around the disks are measured and compared with a standard curve prepared with ketoconazole under the same conditions.

concentration at 1 h	SMILES
57.3 µM	CCCCCCCCC=CCCCCCCCC(=O)N1CCN(c2ccc(OCC3COC(Cn4ccnc4)(c4ccc(Cl)cc4Cl)O3)cc2)CC1 (centres unmarked) [No. 7]
